Two compounds from paper PMC10385579, “Design, Synthesis, and Biological Evaluation of Indole-2-carboxamides as Potential Multi-Target Antiproliferative Agents” (Pharmaceuticals, 2023) can be followed below.

For orientation: IC50 means the concentration that inhibits the measured activity by half. A word on the viability: it is a per cent measure of how many cells are alive, often set against a control. Low readings indicate a greater loss of cells, high ones better survival.

For series [1], the system named is human epithelial (A-549) cancer cell line. Kind of series: Antiproliferative assay, A-549. It is filed as cell-based. As to conditions: A549, read-out: Antiproliferative Activity IC50 ± SEM, A-549. On the procedure: (§1) 4.2.1.2. Assay for antiproliferative effect
(§2) To explore the antiproliferative potential of compounds propidium iodide fluorescence assay was performed using different cell lines such as Panc-1 (pancreas cancer cell line), MCF-7 (breast cancer cell line), HT-29 (colon cancer cell line) and A-549 (epithelial cancer cell line), respectively.
(§3) To calculate the total nuclear DNA, a fluorescent dye (propidium iodide, PI) is used which can attach to the DNA, thus offering a quick and precise technique. PI cannot pass through the cell membrane and its signal intensity can be considered as directly proportional to quantity of cellular
(§4) DNA. Cells whose cell membranes are damaged or have changed permeability are counted as dead ones. The assay was performed by seeding the cells of different cell lines at a density of 3000-7500 cells/well (in200μl medium) in culture plates followed by incubation for 24h at 37 °C in humidified 5%CO2/95% air atmospheric conditions. The medium was removed; the compounds were added to the plates at 10 μM concentrations (in 0.1% DMSO) in triplicates, followed by incubation for 48h. DMSO (0.1%) was used as control. After incubation, medium was removed followed by the addition of PI (25 μl, 50μg/mL in water/medium) to each well of the plates. At - 80 °C, the plates were allowed to freeze for 24 h, followed by thawing at 25 °C. A fluorometer (Polar-Star BMG Tech) was used to record the readings at excitation and emission wavelengths of 530 and 620 nm for each well. The percentage cytotoxicity of compounds was calculated using […]
(§5) Where ATC= Absorbance of treated cells and AC= Absorbance of control. Erlotinib was used as positive control in the assay.

Series [2] has as its target EGFR (Homo sapiens, UniProt P00533). Put plainly: EGFR inhibitory assay.
In series [3] the test system is Bax. Put plainly: Bax level assay in A-549 cells. It counts as cell-based, human. Particulars: for Bax Conc: control 9; for Bax Fold Change: vs control. On the procedure:
caspase8, and lysed with Cell Extraction Buffer. This lysate was diluted in Standard Diluent Buffer over the range of the assay and measured for human active caspase-8 content. […]
4.2.7. Bax activation assay
Bring all reagents, except the human Bax-α Standard, to room temperature for at least 30 minutes prior to opening. The human Bax-α Standard solution should not be left at room temperature for more than 10 minutes. All standards, controls and samples should be run in duplicate. Refer to the Assay Layout Sheet to determine the number of wells to be used and put any remaining wells with the desiccant back into the pouch and seal the ziploc. Store unused wells at 4 °C. Pipet 100 μL of Assay Buffer into the S0 (0 pg/mL standard) wells. Pipet 100 μL of Standards #1 through #6 into the appropriate wells. Pipet 100 μL of the Samples into the appropriate wells. Tap the plate gently to mix the contents. Seal the plate and incubate at room temperature on a plate shaker for 1 hour at ~500 rpm. Empty the contents of the wells and wash by adding 400 μL of wash solution to every well. Repeat the wash 4 more times for a total of 5 washes. After the final wash, empty or aspirate the wells and firmly tap the plate on a lint free paper towel to remove any remaining wash buffer.
Pipet 100 μL of yellow Antibody into each well, except the Blank. Seal the plate and incubate at room temperature on a plate shaker for 1 hour at ~500 rpm. Empty the contents of the wells and wash by adding 400 μL of wash solution to every well. Repeat the wash 4 more times for a total of 5 washes. After the final wash, empty or aspirate the wells and firmly tap the plate on a lint free paper towel to remove any remaining wash buffer. Add 100 μL of blue Conjugate to each well, except the Blank. Seal the plate and incubate at room temperature on a plate shaker for 30 minutes […]
Pipet 100 μL of Substrate Solution into each well. Incubate for 30 minutes at room temperature on a plate shaker at ~500 rpm. Pipet 100 μL Stop Sol ution to each well. Blank the plate reader against the Blank wells, read the optical density at 450 nm. Calculate the average net Optical Density (OD) bound for each standard and sample by subtracting the average Blank OD from the average OD for each standard and sample. Using linear graph paper, plot the Average Net OD for each standard versus Bax concentration in each standard. Approximate a straight line through the points.
The concentration of Bax in the unknowns can be determined by interpolation. […]

A short description of series [4]: Cell viability assay (MTT) on MCF-10A. It is filed as cell-based. Particulars: human, MCF-10A mammary gland epithelial cells, MCF-10A cells, four days. On the procedure: To assess the viability of compounds IV and Va–i, the human mammary gland epithelial (MCF-10A) cell line was exploited. Compounds IV and Va–i were cultured for four days on MCF-10A cells before being evaluated for vitality using the MTT assay.
To test the viability of the new compounds, the human mammary gland epithelial (MCF-10A) cell line was used. Compounds IV and Va–i were incubated on MCF-10A cells for four days before being tested for viability using the MTT assay. See Supplementary Materials.
4.2. Biological evaluation
4.2.1. Cytotoxic activity using MTT Assay and evaluation of IC50
MTT assay was performed to investigate the effect of the synthesized compounds on mammary epithelial cells (MCF-10A). The cells were propagated in medium consisting of Ham's F-12 medium/ Dulbecco's modified Eagle's medium (DMEM) (1:1) supplemented with 10% foetal calf serum, 2 mM glutamine, insulin (10 μg/mL), hydrocortisone (500 ng/mL) and epidermal growth factor (20 ng/mL). Trypsin ethylenediamine tetra acetic acid (EDTA) was used to passage the cells after every 2-3 days. 96-well flat-bottomed cell culture plates were used to seed the cells at a density of 10^4 cells mL-1. The medium was aspirated from all the wells of culture plates after 24 h followed by the addition of synthesized compounds (in 200 μL medium to yield a final concentration of 0.1% (v/v) dimethyl sulfoxide) into individual wells of the plates. Four wells were designated to a single compound. The plates were allowed to incubate at 37°C for 96 h. Afterwards, the medium was aspirated and 3-[4,5-dimethylthiazol-2-yl]-2,5-diphenyltetrazolium bromide (MTT) (0.4 mg/mL) in medium was added to each well and subsequently incubated for 3 h. The medium was aspirated and 150 μL dimethyl sulfoxide (DMSO) was added to each well. The plates were vortexed followed by the measurement of absorbance at 540 nm on a microplate reader. The results were presented as inhibition (%) of proliferation in contrast to controls comprising 0.1%

For series [5], the system named is colon cancer (HT-29) cell line. Kind of series: Antiproliferative assay, HT-29. It counts as cell-based. As to conditions: Homo sapiens, read-out: Antiproliferative Activity IC50 ± SEM, HT-29. On the procedure: as §1, §2, §3, §4, §5
The test system of series [6] is caspase-8. Kind of series: Caspase-8 level assay in A-549 cells. It is filed as cell-based, human. As to conditions: for Caspase-8 Conc: control 0.10; for Caspase-8 Fold Change: vs control. On the procedure:
See Supplementary Materials.
4.2.6. Caspase-8 activation assay […]
caspase8, and lysed with Cell Extraction Buffer. This lysate was diluted in Standard Diluent Buffer over the range of the assay and measured for human active caspase-8 content. (Cells are Plated in a density of 1.2 – 1.8 × 10,000 cells/well in a vo lume of 100µl complete growth medium + 100 ul of the tested compound per well in a 96-well plate for 24 hours before the enzyme assay for Tubulin.). The absorbance of each microwell was read on a spectro-photometer at 450 nm. A standard curve is prepared from 7human Caspase-8 standard dilutions and human Caspase-8 concentration determined. […]

Chain of EGFR (P00533 669-1210): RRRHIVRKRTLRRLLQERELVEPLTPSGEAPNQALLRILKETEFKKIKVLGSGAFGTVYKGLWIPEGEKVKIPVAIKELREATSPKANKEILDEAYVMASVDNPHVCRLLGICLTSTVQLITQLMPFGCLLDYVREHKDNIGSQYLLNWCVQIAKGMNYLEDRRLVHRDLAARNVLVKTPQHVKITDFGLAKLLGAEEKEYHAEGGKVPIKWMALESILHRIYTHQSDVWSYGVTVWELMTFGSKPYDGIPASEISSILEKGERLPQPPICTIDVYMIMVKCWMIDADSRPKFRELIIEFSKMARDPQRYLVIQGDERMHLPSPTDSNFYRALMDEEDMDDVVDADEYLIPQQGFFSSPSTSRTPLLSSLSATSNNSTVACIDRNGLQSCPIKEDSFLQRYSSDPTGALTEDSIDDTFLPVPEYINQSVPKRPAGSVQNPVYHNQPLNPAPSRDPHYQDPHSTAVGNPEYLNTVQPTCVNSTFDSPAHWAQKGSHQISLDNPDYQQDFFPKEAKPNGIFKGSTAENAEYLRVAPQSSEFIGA

On to `O=C(NCC(c1ccccc1)c1c(-c2ccccc2)[nH]c2ccccc12)c1cc2cc(Cl)ccc2[nH]1` (stereo not shown) [Compound Va, 5-Chloro-N-(2-phenyl-2-(2-phenyl-1H-indol-3-yl)ethyl)-1H-indole-2-carboxamide], for which, in series [1], the half-inhibitory concentration (IC50) worked out at 25 ± 2 nM. Also, the IC50 in series [2] was 71 ± 6 nM. In series [3], the “Bax Conc” value worked out at 410 pg/mL and the “Bax Fold Change” value is 45. Further, the viability at 96 h, 50 µM in series [4] amounted to 91%. Moreover, in series [5], the IC50 was found to be 26 ± 2 nM. In series [6], the “Caspase-8 Conc” value came to 3.50 ng/mL and the “Caspase-8 Fold Change” value stood at 35.

Turning to `CO/C=C/c1c(C(=O)NCC(c2ccccc2)c2c(-c3ccccc3)[nH]c3ccccc23)[nH]c2ccc(Cl)cc12` (stereo not shown) [Compound Vg, (E)-5-Chloro-3-(2-methoxyvinyl)-N-(2-phenyl-2-(2-phenyl-1H-indol-3-yl)ethyl)-1H-indole-2-carboxamide], the IC50 came out at 30 ± 2 nM in series [1], 79 ± 6 nM in series [2] and 30 ± 2 nM in series [5]. The “Bax Conc” value in series [3] is given as 320 pg/mL. Further, in series [3], the “Bax Fold Change” value is listed as 35. The viability at 96 h, 50 µM in series [4] is 89%. Besides, in series [6], the “Caspase-8 Conc” value is reported as 2.20 ng/mL. In addition, in series [6], the “Caspase-8 Fold Change” value was 22.
